Results from patent US20120065165A1, “COMPOSITIONS AND METHODS OF TREATING ENDOTHELIAL DISORDERS” (ARGINETIX, INC, priority 2008, published 2012).

Legend:
diabetic ZDF rats = test: ABH plus PDE5 inhibitor in diabetic ZDF rats: erectile function and vasorelaxation (Example 8); type: in vivo, rat; conditions: ABH alone
Procedure: The effects of ABH and PDE5 inhibitors, singly and in combination, in the ZDF model of type 2 diabetes are tested.
ZLC rats are maintained on a normal diet. […] Ten to twenty minutes prior to each in vivo vasorelaxation experiment, animals will receive a single intravenous dose of the PDE5 inhibitor, sildenafil citrate (Viagra; either 1 or 2 mg/kg iv) or vehicle alone. […] Peak intracavernous pressure, ICP/mean arterial pressure (MAP), and total ICP (area under the erectile curve) are determined in response to intra-cavernous administration of the endothelium-dependent vasodilator ACh, and in response to direct cavernous nerve stimulation. Animals will then be euthanized, and aortas and penile vascular tissues are collected. Biochemical (arginase, NO, eNOS, ROS) and functional (contraction and relaxation in organ baths) indicators of endothelial health are determined in aortic rings and cavernous strips.

old rat aorta = test: ROS production in aortic rings (DHE fluorescence); type: cell-based; conditions: aged rat aortas
Source text: ABH improves endothelial function by inhibiting arginase and consequently increasing NO production (by increasing L-arginine availability to eNOS) and decreasing levels of ROS (by preventing eNOS uncoupling). […] Aortic rings were dissected and pinned down, endothelial side up, on a silastic coated culture dish, and then exposed to either the NO-sensitive dye DAF, or the O2-sensitive dye DHE. Since the interaction of NO or ROS with its specific dye is cumulative, the rate of production of each species is proportional to the slope of the fluorescence emitted from the dye as measured using epifluorescence microscopy. […] SNP endothelial-independent NO donor was included as a control (Santhanam et al 2007).
This supports the hypothesis that arginase inhibition results in increased vascular NO production. A corollary of this effect is a decrease in ROS production by re-coupling eNOS to NO production. […] This resulted from deranged NOS activity (uncoupled NOS), since ROS levels could be reduced using the NOS-inhibitor nitro-L-arginine methyl ester (FIG. 6C). […] Similar techniques are used to examine whether ABH can restore NO production and decrease ROS production in vascular endothelial cells and corporal tissue from type 2 diabetic rats.

arginase I [1] = conditions: tissue extracts from diabetic corpus cavernosa; cited from earlier work
arginase I [2] = target: T1, arginase I (Homo sapiens, UniProt P05089); conditions: cited from earlier work
T1 sequence (P05089 1-322): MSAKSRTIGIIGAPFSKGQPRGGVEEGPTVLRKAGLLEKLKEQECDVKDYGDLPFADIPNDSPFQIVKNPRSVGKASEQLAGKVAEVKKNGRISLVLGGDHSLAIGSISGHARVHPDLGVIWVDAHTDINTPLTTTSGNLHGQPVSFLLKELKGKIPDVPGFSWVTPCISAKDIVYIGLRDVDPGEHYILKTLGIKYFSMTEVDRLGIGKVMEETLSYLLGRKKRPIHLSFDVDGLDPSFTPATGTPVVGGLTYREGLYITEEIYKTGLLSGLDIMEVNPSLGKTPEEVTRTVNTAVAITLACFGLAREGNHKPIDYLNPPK

[3] = test system: tissue explants from diabetic ZDF rats; test: Ex vivo ABH treatment of tissue explants from type 2 diabetic ZDF rats (Example 6); type: cell-based, rat; conditions: vs ZLC rats
Source text: Biochemical and functional parameters of endothelial functions in a model of type 2 diabetes (Zucker Diabetic Fatty (ZDF) Rats) and in a control rat strain (Zucker Lean Control (ZLC) rat), are used to investigate the ex vivo effectiveness of ABH in improving these parameters. Vascular arginase activity and its role in the development of diabetic endothelial pathology have been previously characterized in models of Type 1 diabetes (Jelodar, et al., 2007 J. Reprod. Dev. 53: 317-321; Romero, et al., 2008 Circ. Res. 102: 95-102). […] Vascular endothelial function is measured using organ chambers in isolated rat arterial rings and in strips of erectile tissue collected from each rat strain.
ZDF rats have a mutation in the gene for the leptin receptor. […] Arginase I and II and eNOS mRNA and protein concentrations in these tissues are determined by RT-PCR and Western blot, respectively. Arginase activity is measured, as described in Example 4, by homogenizing the rat vessels in lysis buffer, removing cellular debris by centrifugation, and monitoring the hydrolysis of L-arginine using calorimetric determination of urea after the addition of isonitrosopropiophenone. […] The cellular location of arginase in this model of type 2 diabetes is determined by comparing the results of RT-PCR, Western blot, and arginase activity assays in endothelial-intact and endothelial-denuded aortic rings. […]

aged Fisher rats = test: Erectile function: intracavernous pressure after cavernous nerve stimulation in aged rats; type: in vivo, rat; conditions: ABH 6 mg/kg in drinking water 28 days
Procedure: Aged (22-26 months) Fisher rats were given either ABH (6 mg/kg in their drinking water) or plain water for 28 days. Young (4-8 months) were given plain water for 28 days. Rats were then anesthetized and erectile function was evaluated as an indicator of vascular function, by measuring intra-cavernous pressure following electrical stimulation of the cavernous nerve using an electrode placed around the pelvic nerve which innervates the penis (Cama, et al., 2003 Biochemistry 42: 8445-8451). The change in intracavernosal pressure was measured via a catheter placed in the corpora cavernosa. A range of stimulation frequencies were used to measure relaxation effects (and consequentially vascular dependent erectile responses) over their entire functional range.

[4] = cavernous nerve stimulation, vs controls

## N[C@@H](CCCCB(O)O)C(=O)O [ABH, 2(S)-Amino-6-boronohexanoic acid]
Diabetic ZDF rats
  erectile function: some positive effects
Old rat aorta
  ROS production: significantly reduced
Arginase I [1]
  levels of cGMP: increase levels of cGMP
Arginase I [2]
  potency as inhibitor of arginase I: most potent inhibitor
[3]
  biochemical (arginase activity, NO, ROS) and functional (vascular endothelial, erectile) parameters: return these biochemical and functional parameters to values that are similar to those of ZLC rats
Aged Fisher rats
  all penile hemodynamic parameters after CNS: marked improvement
Aged Fisher rats; [4]
  ratio of mean peak intracavernous pressure (ICP) to mean arterial pressure (MAP): marked increase
  total ICP (area under the erectile curve): marked increase
